Paper PMC11148772, “Inhibition of protein translational machinery in triple-negative breast cancer as a promising therapeutic strategy” (Cell Reports Medicine, 2024)

How the values were obtained:
[1] = system: TNBC cells (MDA-MB-231, MDA-MB-468, SUM159, 4T1, EMT6); assay: Clonogenic (colony-formation) assay; type: cell-based
Description: We performed a clonogenic assay to check the effect of SU056 on clonal expansion potential of MDA-MB-231, MDA-MB-468, SUM159, 4T1, EMT6, and E0771 cells on tissue culture plates. MDA-MB-231 (1000 cells), MDA-MB-468 (1000 cells), SU159 (300 cells), 4T1 (300 cells), and EMT6 (300 cells), were seeded and grown for 24 h in complete media onto 12-well culture plate. Cells were treated with the specific concentrations of SU056 for 7–10 days in complete media. Plates were processed for crystal violet staining, and the number of colonies was counted for each well. Colonies were scanned for confluency area using a Tecan multimode plate reader.

CA1616-PDX-TNBC = assay: Patient-derived xenograft; type: in vivo, mouse; conditions: 50 mg/kg orally, NSG mice
Text: (§1) Different patient-derived xenograft (PDX) of TNBC were used in this study. The Institutional Animal Care & Use Program of Oregon Health and Science University approved the protocol (#IP00003247). SUTI151-PDX-TNBC was kindly provided by Stefanie S. Jeffrey, MD, Stanford University, CA, USA.[48] CA1616-PDX-TNBC, CA1262-PDX-TNBC, and MA2821-PDX-TNBC were procured from the NCI Patient-Derived Models Repository (PDMR). Information of the PDX samples from NCI can be accessed at https://pdmr.cancer.gov/models/pdx.htm. 6–8 weeks old NSG (female) mice were anesthetized with isoflurane and tumor cells were xenografted into 5th mammary fat pad. Post-xenograft, once tumors reached a size of 50–100 mm^3, SU056 treatment (50 mg/kg body weight administered by oral gavage, 5 days per week) was started. At the end of treatment, mice were euthanized under deep anesthesia and tumors were surgically removed, measured, and weighed.

MA2821-PDX-TNBC = assay: Patient-derived xenograft; type: in vivo, mouse; conditions: 50 mg/kg orally, NSG mice
Text: as §1

SUTI151-PDX-TNBC = assay: Patient-derived xenograft; type: in vivo, mouse; conditions: 50 mg/kg orally, NSG mice
Text: as §1

4T1 lung metastasis = assay: Orthotopic 4T1 model, lung metastasis; type: in vivo, mouse; conditions: orthotopic 4T1, 50 mg/kg, lung metastatic nodules counted
Text: Data S2. Effect of SU056 treatment on body weight, metastatic potential and pharmacokinetic profiling of SU056, related to Figure 2 and 3
Human, mouse and PDX models of TNBC were used for tumor xenograft studies. SU056 treatment was started when tumors reached around ~25-50 mm3 and continued until the experiment reached its 3-week endpoint. Body weight was monitored throughout the study to understand any change in dietary pattern. Body weights of A) MDA-MB-231, B) MDA-MB-468, C) 4T1, D) EMT6, E) CA1616-PDX-TNBC, F) CA1262-PDX-TNBC, G) MA2821-PDX-TNBC and H) SUTI151-PDX-TNBC over time. I) Tumor volume, J) Tumor weight and K) The bar graph represents lung metastatic nodules in 4T1 orthotopic models. L) Representative images of lungs at the end of the treatment cycle. M) Mice were treated with 20 mg/kg SU056 orally. Cmax (maximum serum concentration), Tmax (time to reach Cmax), and T1/2 (elimination half-life of compound). N) Human liver microsomes were used for the purpose of metabolic profiling.
Data are shown as mean ± SD. Error bars represent ± SD.
*p < 0.05, **p < 0.01, ***p < 0.001 and ****p < 0.0001. Significant difference compared with respective control by Student’s t test or one-way ANOVA followed by Dunnett’s test.

[2] = system: translation machinery molecules (RPLs, RPSs, eIFs) in MDA-MB-231-YB-1 knockdown cells; assay: CETSA in YB-1 knockdown cells; type: binding, human; conditions: YB-1 knockdown vs scrambled control cells
Text: In the second CETSA experiment with MDA-MB-231- YB-1 knockdown cells, the Orbitrap Eclipse Tribrid mass spectrometer parameters consisted of setting the cycle time at Top-speed at 1 s, the mass scan range set between 375 and 1800 m/z, and a mass resolution of 50,000. The normalized AGC target and maximum injection time was set to standard and auto respectively. The precursor ions were selected from highest to lowest charge state, sorted by the lowest m/z, and fragmented using Higher Energy Collisional Dissociation (HCD) with a fixed collisional energy of 38%. Dynamic exclusion was enabled for 60 s with a mass tolerance of ±10 ppm. The normalized AGC target set to 200% with a maximum injection time of 86 ms. MS2 fragments were detected in the Orbitrap with a mass resolution of 50,000 and scan range window of 110–1800 m/z.
Proteins were quantified using individual spectra matched peptides based on a sum-based bootstrap algorithm, which used the TMT reporter ion intensity after correcting for isotope impurities with Proteome Discoverer 2.4. The protein levels were compared between the vehicle and SU056 treated samples. The lowest temperature was used as a reference to calculate the log2 ratio of the soluble fraction signal at each temperature, and the signal at each temperature was compared to the […] temperature to estimate the percentage of signal lost in the soluble fraction. […]

[3] = target: T1, YB-1 and RPL11 interaction (Homo sapiens, UniProt P67809); assay: Immunoprecipitation of YB-1; type: cell-based; conditions: MDA-MB-231 and MDA-MB-468, 1 μM
T1 construct: Immunoprecipitation of YB-1 from protein lysates of SU056-treated MDA-MB-231 and MDA-MB-468 cells using YB-1 antibody; endogenous in cells; host or cells: MDA-MB-231; MDA-MB-468
Description: MDA-MB-231 and MDA-MB-468 cells with and without SU056 (1 μM) treatment for 6 and 12 h respectively and were lysed using M-PER lysis solution (Thermo Scientific, #78503), supplemented with Halt protease and phosphatase inhibitor cocktail (Thermo Scientific, #78440). Precleaned 300 μg protein lysate was incubated overnight at 4°C with 3 μg YB-1 (Abcam, #ab76149) on nutating rocker. The antibody was pulled down using 20 μL Protein A/G magnetic beads (Thermo scientific #88802). After three washings, beads were resuspended in 2X SDS sample buffer followed by heating at 90°C–100°C for 5 min. Samples were resolved and probed with indicated antibodies as described in immunoblotting assay.

[4] = system: TNBC cells (MDA-MB-231, MDA-MB-468, SUM159); assay: Immunoblot assay of cell lysates; type: cell-based, human; conditions: MDA-MB-231 and MDA-MB-468, 1 and 2 μM

Compound: O=C1OCC2=C1C(c1cccc(F)c1)c1cc3c(cc1N2CCO)OCO3 (stereo not shown) [SU056, 9-(3-fluorophenyl)-5-(2-hydroxyethyl)-6,9-dihydro-[1,3]dioxolo[4,5-g]furo[3,4-b]quinolin-8(5H)-one]
- clonogenic potential ([1]; 0.5 μM, all TNBC cell lines): strong suppression
- number of colonies formed compared to untreated controls ([1]; 0.1, 0.25, and 0.5 μM, 7–10 days): significantly decreased
- tumor volume reduced compared to vehicle control (CA1616-PDX-TNBC): 63.1%
- tumor weight decreased (CA1616-PDX-TNBC): 43.6%
- tumor growth decreased (MA2821-PDX-TNBC): 51.35%
- tumor weight reduced (MA2821-PDX-TNBC): 48.89%
- reduction in tumor weight (SUTI151-PDX-TNBC): 29%
- tumor volume reduced compared to control (SUTI151-PDX-TNBC): 37%
- decrease in lung metastasis compared to control (4T1 lung metastasis): 65.5%
- thermal stability of translation machinery molecules (RPLs, RPSs, and eIFs) [2]: does not increase
- YB-1 and RPL11 interaction [3]: inhibits
- BCL-2 expression [4]: inhibited
- Bax expression [4]: induced
